“And” between values parts separate entries of the source, which are not always exact repeats. Equal entries are not always repeated. “Also recorded” adds a separate entry of the source. Where two headings read alike, the source gives them in different places.
Experiments:
[1] = molecular target: α7 receptor binding sites (Rattus norvegicus, UniProt Q05941); assay type: in vivo; details: sc, 2-4 h
dog Purkinje fibre = test: Dog isolated cardiac Purkinje fibres, action potentials; details: stimulation 0.5 and 1 Hz
Experimental: Effects of AZD0328 on cardiac action potentials were assessed in 4 dog Purkinje fibre preparations. (Table 3). The following action potential parameters were measured at the stimulation frequencies 0.5 and 1 Hz: action potential duration at 50% (APD50), 70% (APD70) and 90% (APD90) of repolarisation; the maximum velocity of the action potential upstroke (Vmax); the action potential amplitude (APA) and the resting membrane potential (RMP). At both stimulation frequencies, AZD0328 caused a concentration-dependent prolongation of APD50, APD70 and APD90, with significant effects at 5.6 μM and above. There was also an indication of proarrhythmic potential of the compound. A 10% increase in APD90 in the isolated dog Purkinje fibre is seen at concentrations between 5.6 and 16.8 μm.

rats [2] = test: Nicotine drug discrimination; details: Wistar, rat, in vivo, sc
Experimental: AZD0328 was tested for its potential to produce nicotine-like stimulus effects after subcutaneous administration in a drug-discrimination procedure (Table 3).

guinea pigs = test: Cardiac repolarisation in anesthetised guinea pig (MAP); assay type: in vivo; details: highest dose, total plasma concentration 8.5 μM
Experimental: Effects of AZD0328 on ventricular repolarisation and intracardiac conduction were investigated in 6 anesthetised and ventilated guinea pigs (Table 3). For the electrophysiological characterisation, monophasic action potentia MAP duration at 90% repolarisation (MAPD90), ventricular conduction velocity (MAP rise time), and atrioventricular (AV) conduction time were recorded during cardiac pacing. AZD0328 had dose-dependent effects on the electrophysiological activities in the guinea pig heart. At the highest dose, resulting in a total plasma concentration of 8.5 μM, MAPD90 and AV conduction time were prolonged by 20% and 13%, respectively. It is concluded that AZD0328 delayed ventricular repolarisation in the anesthetised guinea pig by 10% at a total plasma concentration of 2.4 μM.

dogs = test: Cardiovascular telemetry / ECG; assay type: in vivo; details: dog
Experimental: The cardiovascular effects of orally administered AZD0328 were assessed dogs implanted with telemetry transmitters (Table 3). The main purpose of the study was to evaluate effects on the QT interval of the ECG during a 7-days dosing period followed by 5 days of recovery, thus enabling assessment of any accumulation of effects and the recovery back to baseline. Systolic, diastolic and mean arterial blood pressure, heart rate, lead II ECG and core body temperature were recorded continuously. The PR, QRS and QT intervals of the ECG were measured, and the QT interval was corrected for changes in heart rate using the method of Van de Water (QTcV).

rats [3] = test: Intestinal motility (charcoal meal test, glass bead test); assay type: in vivo; details: rat, oral
Experimental: Effects of AZD0328 on small intestinal and colorectal motility were investigated in rats using the charcoal meal test and the glass bead test, respectively (Table 3). In the first part, evaluating intestinal transit, a test meal containing charcoal as a non-absorbable marker was administered to rats. In the second part, effects of oral administration of AZD0328 on colo-rectal transit time was evaluated.

[4] = PK/TK single dose studies; assay type: in vivo; details: rhesus monkey, plasma
Experimental: Pharmacokinetic studies in rats and monkeys were used to estimate the plasma concentrations associated with doses at which AZD0328 improved cognitive performance in these species. For example, in rhesus monkeys, two studies were conducted to determine the pharmacokinetic profile of AZD0328 after administration of 0.048 and 1.7 mg per kg AZD0328. […] We thus estimated the peak plasma concentrations in monkeys that received AZD0328 at 0.00048-0.016 mg per kg to be 0.6-18 nM. Similar studies and calculations in rats, when extended to mice, led us to estimate plasma concentrations at 0.001-0.1 mg per kg body weight to be 0.29-100 nM in these species.
(§1) This section provides a summary of the pharmacokinetic and metabolism properties of AZD0328 derived from in vivo studies. […] The derived PK/TK parameters from these studies are presented in Table 4 for single dose studies (DMR4, 0619LR, 20030191PCR, DM016, DMB10, DMW12, 50190, 0190DD and 03.330/1), and are presented in Table 5 multiple dose PK/TK studies (DMR4, 0612AR, DMB15, 50190, 0190DD and 0295AD).

[5] = PK/TK multiple dose studies; assay type: in vivo; details: rabbit 2F, DMB15, subcutaneous 1.15 mg/kg (3 μmol/kg), day 18
Text: as §1

Pgp transporter = Pgp transporter (Homo sapiens, UniProt P08183); test: Digoxin transport, cell-based assay; assay type: in vitro ADME
Text: The 50% bioavailability of AZD0328 in human was conservatively selected based on the observations from rat, dog and monkey.

Ames test = test: Ames test; assay type: cell-based
Text: The genotoxic potential of AZD0328 has been evaluated in the Ames test and in the Mouse lymphoma test. AZD0328 was not mutagenic in either of these tests.

rhesus monkeys = test: Intravenous self-administration (reinforcing potential)
Text: The compound was compared with cocaine and saline for its ability to maintain intravenous self-administration in the monkeys under a lever-press induced drug infusion schedule.

Chain of α7 receptor binding sites (Q05941 23-502): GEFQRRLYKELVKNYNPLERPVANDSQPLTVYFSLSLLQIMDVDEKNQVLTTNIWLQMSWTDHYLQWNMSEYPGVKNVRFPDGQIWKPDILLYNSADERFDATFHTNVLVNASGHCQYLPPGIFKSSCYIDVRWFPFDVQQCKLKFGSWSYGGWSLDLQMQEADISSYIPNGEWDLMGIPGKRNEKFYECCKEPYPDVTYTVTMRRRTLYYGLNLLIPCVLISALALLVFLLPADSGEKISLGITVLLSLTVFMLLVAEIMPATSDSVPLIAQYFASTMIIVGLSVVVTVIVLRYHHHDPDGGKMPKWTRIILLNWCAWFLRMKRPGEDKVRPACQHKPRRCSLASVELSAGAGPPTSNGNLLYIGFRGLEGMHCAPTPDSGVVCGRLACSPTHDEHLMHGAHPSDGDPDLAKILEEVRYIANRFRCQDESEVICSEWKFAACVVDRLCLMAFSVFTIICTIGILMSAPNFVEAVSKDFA
Chain of Pgp transporter (P08183 whole entry): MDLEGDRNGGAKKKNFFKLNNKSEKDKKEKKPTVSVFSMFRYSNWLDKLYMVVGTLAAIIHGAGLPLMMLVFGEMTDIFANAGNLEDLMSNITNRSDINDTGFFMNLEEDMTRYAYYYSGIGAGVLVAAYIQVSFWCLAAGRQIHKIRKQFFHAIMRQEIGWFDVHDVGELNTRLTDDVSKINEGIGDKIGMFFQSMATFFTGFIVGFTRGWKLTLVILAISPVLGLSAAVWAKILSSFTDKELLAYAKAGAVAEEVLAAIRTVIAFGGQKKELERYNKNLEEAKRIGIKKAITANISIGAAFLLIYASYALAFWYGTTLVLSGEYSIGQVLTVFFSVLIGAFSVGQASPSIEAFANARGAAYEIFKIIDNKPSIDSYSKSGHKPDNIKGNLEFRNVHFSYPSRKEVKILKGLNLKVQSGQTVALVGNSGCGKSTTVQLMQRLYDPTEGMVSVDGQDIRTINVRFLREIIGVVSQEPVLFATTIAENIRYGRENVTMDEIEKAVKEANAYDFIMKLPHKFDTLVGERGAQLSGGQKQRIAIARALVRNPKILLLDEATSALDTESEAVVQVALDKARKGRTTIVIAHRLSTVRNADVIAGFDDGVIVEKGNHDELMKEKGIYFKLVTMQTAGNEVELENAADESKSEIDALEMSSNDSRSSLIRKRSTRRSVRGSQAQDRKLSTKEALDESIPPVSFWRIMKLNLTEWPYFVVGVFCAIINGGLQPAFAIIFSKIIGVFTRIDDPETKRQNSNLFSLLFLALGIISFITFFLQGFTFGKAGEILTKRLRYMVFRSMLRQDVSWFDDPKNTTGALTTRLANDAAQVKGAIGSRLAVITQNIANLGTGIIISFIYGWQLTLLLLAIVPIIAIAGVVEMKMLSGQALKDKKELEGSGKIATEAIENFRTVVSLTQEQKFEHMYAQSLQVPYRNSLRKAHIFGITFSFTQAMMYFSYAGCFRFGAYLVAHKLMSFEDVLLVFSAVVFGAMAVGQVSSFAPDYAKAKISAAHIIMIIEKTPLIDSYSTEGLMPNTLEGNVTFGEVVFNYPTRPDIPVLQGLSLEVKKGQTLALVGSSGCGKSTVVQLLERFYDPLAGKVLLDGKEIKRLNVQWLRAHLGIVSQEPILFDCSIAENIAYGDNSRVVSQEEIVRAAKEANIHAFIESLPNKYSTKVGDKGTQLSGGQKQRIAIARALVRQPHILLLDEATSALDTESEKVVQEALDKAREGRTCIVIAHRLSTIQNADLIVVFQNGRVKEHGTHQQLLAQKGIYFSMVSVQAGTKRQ

## c1cnc2c(c1)C[C@@]1(CN3CCC1CC3)O2 [AZD0328, (R)-Spiro[1-azabicyclo[2.2.2]octane-3,2′(3′H)-furo[2,3-b]pyridine]]
[1]
  Active dose, [125I]-α-bungarotoxin binding ex vivo increased receptor number: 0.1 µg/kg
Dog Purkinje fibre
  Concentration with significant prolongation of APD50, APD70 and APD90: ≥ 5.6 µM
Rats [2]
  Dose up to which nicotine-like stimulus properties were lacking: properties at doses up to 5.4 mg/kg
Guinea pigs
  AV conduction time prolongation: 13%
  MAPD90 prolongation: 20%
dogs; any dose level, 7 or 1 day dosing
  Body temperature, PR or QRS interval: no effect
dogs; oral gavage
  BP and/or HR: increased at all doses.
dogs; single doses 17.3 and 34.6 mg/kg (mid and high dose groups)
  Emesis: frequent vomiting; also recorded: severe emesis. BP and/or HR
Rats [3]
  Dose with inhibition of small- and large-intestinal motility: ≥ 130 µmol/kg
[4]; male, im, 0.048 mg/kg, read-out: AUC (converted)
  AUC: 14.9 ng·h/mL and 0.0684 µM·h
[4]; intramuscular, 0.016 mg/kg, rhesus monkeys, read-out: AUC at NOAEL for behavioral side effects
  AUC: 0.028 µM·h
[5]
  Tmax: 18 to 60 min
Pgp transporter
  Pgp mediated digoxin transport: did not significantly inhibit
Ames test
  Mutagenicity / genotoxicity: not genotoxic; also recorded: not mutagenic
Rhesus monkeys; initial dose-finding study
  iv bolus dose after which one monkey died within minutes: receiving 34.8 mg/kg as iv bolus
Rhesus monkeys; rhesus monkey, iv infusion 0.384, 1.15 and 3.84 mg/kg/infusion
  Reinforcing effect: did not display reinforcing properties; also recorded: No reinforcing effect seen at any
Rhesus monkeys; rhesus monkey, not greater than saline
  Self-administration level: 0.2-1.7 infusions per session

— patent US20100168146A1, “Composition Comprising (R)-Spiro[L-Azabicyclo[2.2.2]Octane-3,2'(3'H)-Furo[2,3-B]Pyridine (AZD0328) and its Use in the Treatment of Alzheimer's Disease, ADHD or Cognitive Dysfunction” (priority 2008, published 2010)
